Laboratory results from patent US11534412B2, “Application of totarol and pharmaceutical composition containing totarol” (Emergopharm SP. Z O.O. SP.K., priority 2017, dated 2022).

Columns and labels:
[1] = test system: human vaginal epithelial cells of the A-431 cell line; assay type: cell-based
Procedure: Test of totarol impact on the human vaginal epithelial cells of the A-431 cell line (ATCC® The study was carried out using the following test: Annexin-V-Fluos (Roche, Mannheim, Germany), during incubation for 2, 8 and 24 hours, under in vitro conditions, according to the instructions of the test's manufacturer. The totarol sample was prepared by dissolution of 3 mg of totarol in 3 ml of 100% DMI.
The cultivation time for the A-431 cell line was 20 days. The culture was carried out at a temperature of 37° C. in an atmosphere containing 10% CO2, on a DMEM culture medium (Institute of Immunology and Experimental Therapy PAS [IITD PAN], Wroclaw), with an addition of 10% of foetal bovine serum (FBS, Sigma-Aldrich). The culture fluid were being replaced regularly every 48 hours. After achieving a decantable growth or the so-called “monolayer”, the cells were passaged using (for approx. 10 min) 0.25% trypsin (Sigma-Aldrich). Then, the obtained tissue line was passed to 24-well plates (TPP), adjusting their densities to the value of 5×10^5 per well. The tissue culture of the studied lines was carried out for 3 next days on the surface of sterile microscope slides placed on the bottom of a 24-well plate, until a decantable growth was obtained on the surface of the microscope slides. After obtaining the so-called “monolayer”, the cells were washed with PBS without Ca^2+ and Mg^2+ ions (IITD PAN, Wroclaw), and poured with 700 µl of fresh DMEM medium with 10% FBS, together with 300 μl of properly prepared totarol. • Negative control: 1000 μl of fresh DMEM medium with 10% FBS. • Solvent control: 700 μl of fresh DMEM medium with 10% FBS+300 μl of DMI solvent. • Necrosis positive control: 900 μl of fresh DMEM medium with 10% FBS+100 μl H2O2 (30%). The proper examination using the Annexin-V-Fluos test causes green staining of apoptotic cells. […] This dye has an ability to penetrate the cell's interior freely only through a damaged cellular membrane, staining the interior red. In the case of a lack of damages of the cellular membrane, propidium iodide remains on its surface, forming a characteristic red “halo” around the cell. After a corresponding study time, i.e. 2, 8, and 24 hours, the culture fluid was removed, the content was washed with PBS (pre-heated to a temperature of 37° C.) twice. Then, 100 μl of the fluorescent stains mixture including in the Annexin-V-Fluos (Roche) kit were applied on the surface of each microscope slide (placed in a culture well) and additionally, Hoechst stain was used (cellular DNA staining). The staining procedure was carried out according to the manufacturer's recommendations. The culture together with the stains applied onto it were incubated at room temperature for 20 min. The intensity of light emitted by the cells stained with the individual stains was observed using a fluorescent microscope at the wavelength of 494-520 nm, using 400× magnification. The cells were counted in five visual fields, and the results were averaged. The reliability of the tests carried out is confirmed by hydrogen peroxide used as a positive control, causing a distinct necrosis process already after 2 hours of incubation. Data analyses were carried out on the basis of the average number of cells from five visual fields in the individual times (2, 8, and 24 h). The results are presented in Table 6 and in the form of photographic documentation—FIGS. 1, 2, 3, 4.

Gardnerella vaginalis = conditions: cited from earlier work

Compound	Alive cells [1]	Apopt. cells [1]	Necrot. Cells [1]	Necrot. cells [1]	apoptosis and necrosis in epithelial cells, photographic documentation [1]	metronidazole-resistant strain percentage (Gardnerella vaginalis; Goldstein et al., 1993) [%]	percentage of resistant strains (Gardnerella vaginalis; Goldstein et al., 2002) [%]	studied strains characterised by resistance to metronidazole (Gardnerella vaginalis; Poland, 67 strains isolated from 604 females (46 out of 67)) [%]	resistance of Gardnerella vaginalis strains to metronidazole (Gardnerella vaginalis; studies published in 2007) [%]
OO [Necrosis positive control, reference compound]	0	0	100	100	Necrotic cells				
Cc1ncc([N+](=O)[O-])n1CCO [metronidazole]						20	29	68.7	70
